What was measured:
Assay in all cases: DiscoverX scanEDGE kinase panel
Type in all cases: binding
Settings in all cases: Cmpd Conc 1000 nM, read-out: % Ctrl
[1] = molecular target: T1, RSK2(Kin.Dom.1ENEterminal) (Homo sapiens, UniProt P51812)
T1 construct: RSK2(Kin.Dom.1ENEterminal); purchased DiscoverX (DiscoveRx) KINOMEscan scanEDGE / KdELECT
Text: (§1) We hypothesized that inhibitors of the normal and flipped modes would display distinct selectivity profiles.
(§2) 1. 16 and 21 kinome selectivity data
(§3) (P – phosphorylated; nP – nonphosphorylated; % Ctrl values show the % of DNAEtagged
(§4) kinase which was not displaced from a solid supported ligand by a test compound relative to
(§5) untreated control, quantified by qPCR).
(§6) Please note: ALKs 1, 2, 3, 4, 5 and 6 are listed by their gene symbols: ACVRL1 (ALK1), ACVR1
(§7) (ALK2), BMPR1A (ALK3), ACVR1B (ALK4), TGFBR1 (ALK5) and BMPR1B (ALK6)
(§8) Cmpd DiscoverX Gene Symbol Entrez Gene Symbol % Ctrl Cmpd Conc (nM)

PDGFRB = molecular target: T2, PDGFRB (Homo sapiens, UniProt P09619)
T2 construct: purchased DiscoverX (DiscoveRx) KINOMEscan scanEDGE / KdELECT
Text: as §1, §2, §3, §4, §5, §6, §7, §8

ABL2 = molecular target: T3, ABL2 (Homo sapiens, UniProt P42684)
T3 construct: purchased DiscoverX (DiscoveRx) KINOMEscan scanEDGE / KdELECT
Text: as §1, §2, §3, §4, §5, §6, §7, §8

AXL = molecular target: T4, AXL (Homo sapiens, UniProt P30530)
T4 construct: purchased DiscoverX (DiscoveRx) KINOMEscan scanEDGE / KdELECT
Text: as §1, §2, §3, §4, §5, §6, §7, §8

CSNK1D = molecular target: T5, CSNK1D (Homo sapiens, UniProt P48730)
T5 construct: purchased DiscoverX (DiscoveRx) KINOMEscan scanEDGE / KdELECT
T5 sequence (P48730 whole entry): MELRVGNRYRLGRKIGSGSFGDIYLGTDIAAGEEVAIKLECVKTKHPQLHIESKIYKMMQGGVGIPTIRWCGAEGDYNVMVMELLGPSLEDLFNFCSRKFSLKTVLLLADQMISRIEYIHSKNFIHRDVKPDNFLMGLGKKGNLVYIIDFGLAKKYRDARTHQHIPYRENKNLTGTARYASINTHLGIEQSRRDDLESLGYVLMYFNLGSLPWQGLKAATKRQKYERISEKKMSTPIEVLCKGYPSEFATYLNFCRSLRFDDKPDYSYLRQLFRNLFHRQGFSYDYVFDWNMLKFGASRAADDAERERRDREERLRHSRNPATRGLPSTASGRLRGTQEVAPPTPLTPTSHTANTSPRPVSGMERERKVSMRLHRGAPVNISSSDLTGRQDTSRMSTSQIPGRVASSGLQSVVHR
Text: as §1, §2, §3, §4, §5, §6, §7, §8

MKNK1 = molecular target: T6, MKNK1 (Homo sapiens, UniProt Q9BUB5)
T6 construct: purchased DiscoverX (DiscoveRx) KINOMEscan scanEDGE / KdELECT
Text: as §1, §2, §3, §4, §5, §6, §7, §8

PLK4 = molecular target: T7, PLK4 (Homo sapiens, UniProt O00444)
T7 construct: purchased DiscoverX (DiscoveRx) KINOMEscan scanEDGE / KdELECT
Text: as §1, §2, §3, §4, §5, §6, §7, §8

BTK = molecular target: T8, BTK (Homo sapiens, UniProt Q06187)
T8 construct: purchased DiscoverX (DiscoveRx) KINOMEscan scanEDGE / KdELECT
Text: as §1, §2, §3, §4, §5, §6, §7, §8

NEK6 = molecular target: T9, NEK6 (Homo sapiens, UniProt Q9HC98)
T9 construct: purchased DiscoverX (DiscoveRx) KINOMEscan scanEDGE / KdELECT
Text: as §1, §2, §3, §4, §5, §6, §7, §8

YANK3 = molecular target: T10, YANK3 (Homo sapiens, UniProt Q86UX6)
T10 construct: purchased DiscoverX (DiscoveRx) KINOMEscan scanEDGE / KdELECT
T10 sequence (Q86UX6 whole entry): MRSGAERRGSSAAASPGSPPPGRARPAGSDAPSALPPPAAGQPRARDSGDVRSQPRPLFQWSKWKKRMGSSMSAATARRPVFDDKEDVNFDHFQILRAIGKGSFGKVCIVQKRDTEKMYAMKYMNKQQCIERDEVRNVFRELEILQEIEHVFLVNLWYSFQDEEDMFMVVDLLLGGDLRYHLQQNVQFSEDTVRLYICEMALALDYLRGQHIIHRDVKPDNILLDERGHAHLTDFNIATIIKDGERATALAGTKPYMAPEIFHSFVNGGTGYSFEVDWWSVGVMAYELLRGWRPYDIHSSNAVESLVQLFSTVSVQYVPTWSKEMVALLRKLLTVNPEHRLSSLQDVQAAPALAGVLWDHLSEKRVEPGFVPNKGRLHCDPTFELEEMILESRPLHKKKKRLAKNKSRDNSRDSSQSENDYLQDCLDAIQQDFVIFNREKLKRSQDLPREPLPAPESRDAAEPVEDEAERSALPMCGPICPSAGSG
Text: as §1, §2, §3, §4, §5, §6, §7, §8

ERBB2 = molecular target: T11, ERBB2 (Homo sapiens, UniProt P04626)
T11 construct: purchased DiscoverX (DiscoveRx) KINOMEscan scanEDGE / KdELECT
Text: as §1, §2, §3, §4, §5, §6, §7, §8

KIT(V559D,T670I) = molecular target: T12, KIT(V559D,T670I) (Homo sapiens, UniProt P10721, T670I/V559D)
T12 construct: purchased DiscoverX (DiscoveRx) KINOMEscan scanEDGE / KdELECT
Text: as §1, §2, §3, §4, §5, §6, §7, §8

CDK9 = molecular target: T13, CDK9 (Homo sapiens, UniProt P50750)
T13 construct: purchased DiscoverX (DiscoveRx) KINOMEscan scanEDGE / KdELECT
Text: as §1, §2, §3, §4, §5, §6, §7, §8

FAK = molecular target: T14, FAK (Homo sapiens, UniProt Q05397)
T14 construct: purchased DiscoverX (DiscoveRx) KINOMEscan scanEDGE / KdELECT
Text: as §1, §2, §3, §4, §5, §6, §7, §8

MAPKAPK2 = molecular target: T15, MAPKAPK2 (Homo sapiens, UniProt P49137)
T15 construct: purchased DiscoverX (DiscoveRx) KINOMEscan scanEDGE / KdELECT
T15 sequence (P49137 whole entry): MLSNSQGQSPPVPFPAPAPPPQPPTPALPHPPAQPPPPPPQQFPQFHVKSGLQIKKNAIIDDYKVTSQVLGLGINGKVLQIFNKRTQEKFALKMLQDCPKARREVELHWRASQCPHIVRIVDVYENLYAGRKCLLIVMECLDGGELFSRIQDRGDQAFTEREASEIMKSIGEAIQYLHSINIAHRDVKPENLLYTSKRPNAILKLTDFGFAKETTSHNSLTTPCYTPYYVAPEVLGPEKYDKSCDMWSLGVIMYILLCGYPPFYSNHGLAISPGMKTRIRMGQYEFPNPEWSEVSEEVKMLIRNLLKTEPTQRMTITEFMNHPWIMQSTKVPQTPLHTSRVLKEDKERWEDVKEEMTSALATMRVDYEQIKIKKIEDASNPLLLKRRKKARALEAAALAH
Text: as §1, §2, §3, §4, §5, §6, §7, §8

TIE2 = molecular target: T16, TIE2 (Homo sapiens, UniProt Q02763)
T16 construct: purchased DiscoverX (DiscoveRx) KINOMEscan scanEDGE / KdELECT
T16 sequence (Q02763 23-1124): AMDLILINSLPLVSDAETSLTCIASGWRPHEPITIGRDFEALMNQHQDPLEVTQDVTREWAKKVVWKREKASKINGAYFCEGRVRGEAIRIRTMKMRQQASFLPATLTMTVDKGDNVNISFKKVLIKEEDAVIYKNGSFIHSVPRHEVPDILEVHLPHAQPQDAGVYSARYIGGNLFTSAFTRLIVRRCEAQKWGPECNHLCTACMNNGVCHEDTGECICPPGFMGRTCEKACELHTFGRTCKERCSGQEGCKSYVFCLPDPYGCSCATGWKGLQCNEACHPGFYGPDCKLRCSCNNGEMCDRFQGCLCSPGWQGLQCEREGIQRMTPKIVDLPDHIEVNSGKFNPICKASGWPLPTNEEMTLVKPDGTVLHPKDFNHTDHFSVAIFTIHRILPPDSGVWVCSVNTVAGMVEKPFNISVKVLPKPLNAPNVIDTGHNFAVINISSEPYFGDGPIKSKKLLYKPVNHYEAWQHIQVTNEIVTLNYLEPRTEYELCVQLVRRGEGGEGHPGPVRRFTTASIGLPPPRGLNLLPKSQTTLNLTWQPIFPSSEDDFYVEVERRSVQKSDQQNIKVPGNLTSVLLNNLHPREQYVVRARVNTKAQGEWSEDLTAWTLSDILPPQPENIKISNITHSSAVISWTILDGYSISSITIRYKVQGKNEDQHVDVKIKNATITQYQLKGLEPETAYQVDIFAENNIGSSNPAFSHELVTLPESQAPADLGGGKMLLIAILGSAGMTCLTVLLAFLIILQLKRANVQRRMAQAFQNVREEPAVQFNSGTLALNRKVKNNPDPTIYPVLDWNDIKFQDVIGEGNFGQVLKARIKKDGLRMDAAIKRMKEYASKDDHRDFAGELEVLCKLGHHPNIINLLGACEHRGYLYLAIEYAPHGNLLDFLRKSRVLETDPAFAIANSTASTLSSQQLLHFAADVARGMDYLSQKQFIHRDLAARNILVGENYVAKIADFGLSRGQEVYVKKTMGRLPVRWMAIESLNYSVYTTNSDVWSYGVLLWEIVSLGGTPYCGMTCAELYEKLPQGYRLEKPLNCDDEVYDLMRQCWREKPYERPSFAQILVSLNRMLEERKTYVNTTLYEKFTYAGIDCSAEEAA
Text: as §1, §2, §3, §4, §5, §6, §7, §8

PLK1 = molecular target: T17, PLK1 (Homo sapiens, UniProt P53350)
T17 construct: purchased DiscoverX (DiscoveRx) KINOMEscan scanEDGE / KdELECT
Text: as §1, §2, §3, §4, §5, §6, §7, §8

AKT1 = molecular target: T18, AKT1 (Homo sapiens, UniProt P31749)
T18 construct: purchased DiscoverX (DiscoveRx) KINOMEscan scanEDGE / KdELECT
Text: as §1, §2, §3, §4, §5, §6, §7, §8

PIM2 = molecular target: T19, PIM2 (Homo sapiens, UniProt Q9P1W9)
T19 construct: purchased DiscoverX (DiscoveRx) KINOMEscan scanEDGE / KdELECT
T19 sequence (Q9P1W9 whole entry): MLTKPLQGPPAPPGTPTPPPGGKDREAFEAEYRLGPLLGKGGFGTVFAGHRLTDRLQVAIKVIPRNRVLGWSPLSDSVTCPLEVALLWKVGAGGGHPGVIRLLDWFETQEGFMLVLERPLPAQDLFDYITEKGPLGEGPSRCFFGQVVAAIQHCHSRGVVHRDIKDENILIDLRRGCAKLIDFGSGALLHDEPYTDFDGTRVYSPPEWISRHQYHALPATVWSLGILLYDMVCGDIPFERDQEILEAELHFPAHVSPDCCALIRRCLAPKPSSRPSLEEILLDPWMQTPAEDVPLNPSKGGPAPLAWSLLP
Text: as §1, §2, §3, §4, §5, §6, §7, §8

DYRK1B = molecular target: T20, DYRK1B (Homo sapiens, UniProt Q9Y463)
T20 construct: purchased DiscoverX (DiscoveRx) KINOMEscan scanEDGE / KdELECT
Text: as §1, §2, §3, §4, §5, §6, §7, §8

SRPK3 = molecular target: T21, SRPK3 (Homo sapiens, UniProt Q9UPE1)
T21 construct: purchased DiscoverX (DiscoveRx) KINOMEscan scanEDGE / KdELECT
Text: as §1, §2, §3, §4, §5, §6, §7, §8

FYN = molecular target: T22, FYN (Homo sapiens, UniProt P06241)
T22 construct: purchased DiscoverX (DiscoveRx) KINOMEscan scanEDGE / KdELECT
Text: as §1, §2, §3, §4, §5, §6, §7, §8

ZAP70 = molecular target: T23, ZAP70 (Homo sapiens, UniProt P43403)
T23 construct: purchased DiscoverX (DiscoveRx) KINOMEscan scanEDGE / KdELECT
Text: as §1, §2, §3, §4, §5, §6, §7, §8

GSK3B = molecular target: T24, GSK3B (Homo sapiens, UniProt P49841)
T24 construct: purchased DiscoverX (DiscoveRx) KINOMEscan scanEDGE / KdELECT
Text: as §1, §2, §3, §4, §5, §6, §7, §8

PKACEalpha = molecular target: T25, PKACEalpha (Homo sapiens, UniProt P17612)
T25 construct: purchased DiscoverX (DiscoveRx) KINOMEscan scanEDGE / KdELECT
Text: as §1, §2, §3, §4, §5, §6, §7, §8

AURKA = molecular target: T26, AURKA (Homo sapiens, UniProt O14965)
T26 construct: purchased DiscoverX (DiscoveRx) KINOMEscan scanEDGE / KdELECT
Text: as §1, §2, §3, §4, §5, §6, §7, §8

ERBB4 = molecular target: T27, ERBB4 (Homo sapiens, UniProt Q15303)
T27 construct: purchased DiscoverX (DiscoveRx) KINOMEscan scanEDGE / KdELECT
Text: as §1, §2, §3, §4, §5, §6, §7, §8

SIK2 = molecular target: T28, SIK2 (Homo sapiens, UniProt Q9H0K1)
T28 construct: purchased DiscoverX (DiscoveRx) KINOMEscan scanEDGE / KdELECT
Text: as §1, §2, §3, §4, §5, §6, §7, §8

ERK1 = molecular target: T29, ERK1 (Homo sapiens, UniProt P27361)
T29 construct: purchased DiscoverX (DiscoveRx) KINOMEscan scanEDGE / KdELECT
T29 sequence (P27361 whole entry): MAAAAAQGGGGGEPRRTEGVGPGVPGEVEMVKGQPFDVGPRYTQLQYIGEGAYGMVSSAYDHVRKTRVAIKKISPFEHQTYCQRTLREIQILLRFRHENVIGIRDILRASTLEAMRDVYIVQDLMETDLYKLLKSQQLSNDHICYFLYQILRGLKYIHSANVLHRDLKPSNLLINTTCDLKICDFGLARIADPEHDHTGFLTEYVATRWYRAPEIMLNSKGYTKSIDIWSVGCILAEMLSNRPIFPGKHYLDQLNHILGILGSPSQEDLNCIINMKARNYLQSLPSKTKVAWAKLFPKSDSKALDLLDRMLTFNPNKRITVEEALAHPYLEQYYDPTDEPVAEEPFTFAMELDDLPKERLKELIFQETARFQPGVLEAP
Text: as §1, §2, §3, §4, §5, §6, §7, §8

PRKCE = molecular target: T30, PRKCE (Homo sapiens, UniProt Q02156)
T30 construct: purchased DiscoverX (DiscoveRx) KINOMEscan scanEDGE / KdELECT
Text: as §1, §2, §3, §4, §5, §6, §7, §8

PDPK1 = molecular target: T31, PDPK1 (Homo sapiens, UniProt O15530)
T31 construct: purchased DiscoverX (DiscoveRx) KINOMEscan scanEDGE / KdELECT
T31 sequence (O15530 whole entry): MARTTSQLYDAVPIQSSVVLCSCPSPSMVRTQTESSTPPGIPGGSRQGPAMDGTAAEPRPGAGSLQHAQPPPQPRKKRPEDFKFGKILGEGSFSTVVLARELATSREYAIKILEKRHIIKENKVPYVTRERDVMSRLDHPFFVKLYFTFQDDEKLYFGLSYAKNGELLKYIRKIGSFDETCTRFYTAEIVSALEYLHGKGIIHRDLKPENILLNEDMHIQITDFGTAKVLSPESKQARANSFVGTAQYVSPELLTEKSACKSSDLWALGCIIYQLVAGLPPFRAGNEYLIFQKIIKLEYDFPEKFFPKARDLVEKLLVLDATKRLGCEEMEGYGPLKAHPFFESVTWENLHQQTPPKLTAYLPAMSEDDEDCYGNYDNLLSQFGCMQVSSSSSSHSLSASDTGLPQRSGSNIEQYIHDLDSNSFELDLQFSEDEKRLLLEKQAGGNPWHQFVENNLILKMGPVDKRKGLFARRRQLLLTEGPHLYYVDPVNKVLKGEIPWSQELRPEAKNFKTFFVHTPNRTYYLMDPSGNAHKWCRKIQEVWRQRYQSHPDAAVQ
Text: as §1, §2, §3, §4, §5, §6, §7, §8

ABL1(E255K)EP = molecular target: T32, ABL1(E255K)EP (Homo sapiens, UniProt P00519, E255K)
T32 construct: purchased DiscoverX (DiscoveRx) KINOMEscan scanEDGE / KdELECT
Text: as §1, §2, §3, §4, §5, §6, §7, §8

LCK = molecular target: T33, LCK (Homo sapiens, UniProt P06239)
T33 construct: purchased DiscoverX (DiscoveRx) KINOMEscan scanEDGE / KdELECT
Text: as §1, §2, §3, §4, §5, §6, §7, §8

JAK3(JH1domain) = molecular target: T34, JAK3(JH1domain) (Homo sapiens, UniProt P52333)
T34 construct: JAK3(JH1domain); purchased DiscoverX (DiscoveRx) KINOMEscan scanEDGE / KdELECT
Text: as §1, §2, §3, §4, §5, §6, §7, §8

TGFBR1 (ALK5) = molecular target: T35, TGFBR1 (ALK5) (Homo sapiens, UniProt P36897)
T35 construct: purchased DiscoverX (DiscoveRx) KINOMEscan scanEDGE / KdELECT
Text: as §1, §2, §3, §4, §5, §6, §7, §8

MINK = molecular target: T36, MINK (Homo sapiens, UniProt Q8N4C8)
T36 construct: purchased DiscoverX (DiscoveRx) KINOMEscan scanEDGE / KdELECT
T36 sequence (Q8N4C8 whole entry): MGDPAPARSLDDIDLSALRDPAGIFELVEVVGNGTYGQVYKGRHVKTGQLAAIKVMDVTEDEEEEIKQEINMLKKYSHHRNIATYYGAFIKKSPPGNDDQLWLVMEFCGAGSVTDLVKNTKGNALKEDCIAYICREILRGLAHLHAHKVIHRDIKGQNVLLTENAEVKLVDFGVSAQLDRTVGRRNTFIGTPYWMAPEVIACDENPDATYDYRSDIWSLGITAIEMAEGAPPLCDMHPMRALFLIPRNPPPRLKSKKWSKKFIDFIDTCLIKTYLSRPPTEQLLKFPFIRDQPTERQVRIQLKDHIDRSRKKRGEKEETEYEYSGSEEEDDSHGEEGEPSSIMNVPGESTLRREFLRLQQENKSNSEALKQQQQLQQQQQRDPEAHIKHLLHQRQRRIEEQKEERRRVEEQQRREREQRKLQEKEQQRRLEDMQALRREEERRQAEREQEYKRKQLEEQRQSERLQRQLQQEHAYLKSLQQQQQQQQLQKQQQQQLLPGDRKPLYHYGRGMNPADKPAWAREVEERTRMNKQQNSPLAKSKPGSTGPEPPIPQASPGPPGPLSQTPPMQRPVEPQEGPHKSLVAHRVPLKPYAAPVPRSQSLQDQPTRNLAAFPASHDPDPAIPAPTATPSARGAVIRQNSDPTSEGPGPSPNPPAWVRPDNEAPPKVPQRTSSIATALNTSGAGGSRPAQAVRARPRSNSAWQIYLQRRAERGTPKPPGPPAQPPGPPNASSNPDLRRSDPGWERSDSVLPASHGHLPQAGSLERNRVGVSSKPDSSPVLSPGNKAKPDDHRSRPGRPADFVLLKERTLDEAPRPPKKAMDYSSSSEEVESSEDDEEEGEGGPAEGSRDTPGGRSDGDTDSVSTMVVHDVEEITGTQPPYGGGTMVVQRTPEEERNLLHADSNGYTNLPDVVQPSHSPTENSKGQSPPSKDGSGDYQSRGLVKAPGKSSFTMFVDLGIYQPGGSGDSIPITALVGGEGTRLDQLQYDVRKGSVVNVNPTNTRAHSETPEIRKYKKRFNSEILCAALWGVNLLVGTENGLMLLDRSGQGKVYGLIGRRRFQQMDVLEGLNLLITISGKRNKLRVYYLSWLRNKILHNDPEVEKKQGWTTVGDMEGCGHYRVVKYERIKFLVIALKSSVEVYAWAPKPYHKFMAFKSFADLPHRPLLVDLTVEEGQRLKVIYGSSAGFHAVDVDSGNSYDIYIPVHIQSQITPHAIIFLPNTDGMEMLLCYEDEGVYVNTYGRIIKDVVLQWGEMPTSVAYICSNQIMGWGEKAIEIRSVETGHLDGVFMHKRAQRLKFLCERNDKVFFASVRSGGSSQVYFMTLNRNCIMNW
Text: as §1, §2, §3, §4, §5, §6, §7, §8

CDK7 = molecular target: T37, CDK7 (Homo sapiens, UniProt P50613)
T37 construct: purchased DiscoverX (DiscoveRx) KINOMEscan scanEDGE / KdELECT
Text: as §1, §2, §3, §4, §5, §6, §7, §8

KIT = molecular target: T38, KIT (Homo sapiens, UniProt P10721)
T38 construct: purchased DiscoverX
Text: as §1, §2, §3, §4, §5, §6, §7, §8

Compound `Cc1nc2ccc(-c3ccnc4ccccc34)c(C)c2c(=O)[nH]1` [compound 21, 2,5-Dimethyl-6-(quinolin-4-yl)quinazolin-4(3H)-one] has a remaining binding at 1 µM [1] of 97%, a remaining binding at 1 µM (PDGFRB) of 81% and a remaining binding at 1 µM (ABL2) of 93%. For the same compound, the remaining binding at 1 µM (AXL) was 98%, the remaining binding at 1 µM (CSNK1D) was 88% and the remaining binding at 1 µM (MKNK1) was 93%. For the same compound, the remaining binding at 1 µM (PLK4) was 100%, the remaining binding at 1 µM (BTK) was 100% and the remaining binding at 1 µM (NEK6) was 100%. For the same compound, the remaining binding at 1 µM (YANK3) was 95%, the remaining binding at 1 µM (ERBB2) was 100% and the remaining binding at 1 µM (KIT(V559D,T670I)) was 98%. It also gave a remaining binding at 1 µM (CDK9) of 100%, a remaining binding at 1 µM (FAK) of 98% and a remaining binding at 1 µM (MAPKAPK2) of 100%. It also gave a remaining binding at 1 µM (TIE2) of 89%, a remaining binding at 1 µM (PLK1) of 75% and a remaining binding at 1 µM (AKT1) of 100%. It also gave a remaining binding at 1 µM (PIM2) of 96%, a remaining binding at 1 µM (DYRK1B) of 92% and a remaining binding at 1 µM (SRPK3) of 96%. The remaining binding at 1 µM (FYN) was 100%, the remaining binding at 1 µM (ZAP70) was 99% and the remaining binding at 1 µM (GSK3B) was 97%. The remaining binding at 1 µM (PKACEalpha) was 100%, the remaining binding at 1 µM (AURKA) was 100% and the remaining binding at 1 µM (ERBB4) was 100%. The remaining binding at 1 µM (SIK2) was 100%, the remaining binding at 1 µM (ERK1) was 98% and the remaining binding at 1 µM (PRKCE) was 91%. The remaining binding at 1 µM (PDPK1) was 95%, the remaining binding at 1 µM (ABL1(E255K)EP) was 95% and the remaining binding at 1 µM (LCK) was 96%. It also gave a remaining binding at 1 µM (JAK3(JH1domain)) of 94%, a remaining binding at 1 µM (TGFBR1 (ALK5)) of 30% and a remaining binding at 1 µM (MINK) of 89%. The remaining binding at 1 µM (CDK7) was 100% and the remaining binding at 1 µM (KIT) was 97%.

— publication PMC6109843, “Novel Quinazolinone Inhibitors of ALK2 Flip between Alternate Binding Modes: Structure–Activity Relationship, Structural Characterization, Kinase Profiling, and Cellular Proof of Concept” (Journal of Medicinal Chemistry, 2018)
